From patent US8304443B2, “Indazole derivatives” (Asahi Kasei Pharma Corporation, priority 2008, dated 2012)
Read-outs that look alike come from different tables or passages of the source.

Legend:
[1] = molecular target: T1, human α1A adrenergic receptor (Homo sapiens, UniProt P35348); assay: Test example 4: human α1A adrenergic receptor agonist activity (Ca flux, Fura-2); type: cell-based; conditions: Test example 4, maximum response to norephinephrine taken as 100%; for Emax: read-out: α1A receptor I.A.
T1 construct: expressed in transfected cells; host or cells: HEK293 cells, pcDNA3.1(−), geneticin-selected
T1 sequence (P35348 1-466): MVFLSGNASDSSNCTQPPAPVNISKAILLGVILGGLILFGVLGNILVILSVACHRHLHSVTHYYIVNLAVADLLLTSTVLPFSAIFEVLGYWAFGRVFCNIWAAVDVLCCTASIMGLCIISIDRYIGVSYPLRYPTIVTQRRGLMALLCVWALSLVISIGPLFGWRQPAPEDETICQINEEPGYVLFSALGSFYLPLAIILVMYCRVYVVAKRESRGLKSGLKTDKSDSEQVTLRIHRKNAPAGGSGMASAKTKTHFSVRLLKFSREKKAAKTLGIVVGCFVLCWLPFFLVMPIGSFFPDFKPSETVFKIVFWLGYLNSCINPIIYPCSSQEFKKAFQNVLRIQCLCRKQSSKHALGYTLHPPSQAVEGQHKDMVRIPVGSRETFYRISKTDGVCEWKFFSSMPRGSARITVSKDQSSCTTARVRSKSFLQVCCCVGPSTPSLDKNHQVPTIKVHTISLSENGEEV
Method: Human α1A adrenergic receptor agonist activity is determined by using HEK293 cells transfected with pcDNA3.1(−) (Invitrogen) to which human α1A gene has been inserted. These cells are cultured in a DMEM medium containing 10% fetal bovine serum, 400 μg/mL geneticin (Gibco BRL), 100 U/ml penicillin and 100 μg/ml streptomycin. […] After carrying out the loading for 30 minutes in a CO2 incubator, excess Fura-2AM is removed by washing the cells twice with the assay buffer. The cells obtained after the centrifuge is prepared to 5×10^6 cells/ml by using the assay buffer, and aliquoted into a 96-well UV plate (manufactured by Corning Inc.) to give a cell plate (80 μl/well). […] After the measurement for about 30 seconds, 20 μl of the test sample from the sample plate is added to the cell plate and the measurement is continued for another 270 seconds. Ca flux caused by the test compound is obtained from the peak height difference between the maximum value of fluorescence intensity ratio at 340 nm and 380 nm after the addition of the test compound and the fluorescence intensity ratio before the addition of the test compound. Maximum response to norephinephrine as a positive control is taken as 100%, and the maximum response ratio of each test compound is obtained as Intrinsic Activity [I.A. (%)].

[2] = molecular target: T2, human β3 adrenergic receptor (Homo sapiens, UniProt P13945); assay: Test example 1-B: human β3 adrenergic receptor agonist activity (cAMP-Screen, 96-well); type: cell-based; conditions: for Emax: 0.5 h, read-out: β3 receptor I.A.; for EC50: CHO cells with human β3 gene, cAMP
T2 construct: used as a probe to obtain the full length human β3 gene from a human genomic library (Clonetech); expressed in transfected cells; host or cells: CHO (Chinese hamster ovary) cells, pcDNA3, geneticin-selected
Method: Human β3 adrenergic receptor agonist activity is determined using CHO (Chinese hamster ovary) cells transfected with pcDNA3 (Invitrogen) to which human β3 gene has been inserted. […] This human β3 cDNA fragment is used as a probe to obtain the full length human β3 gene from a human genomic library (Clonetech). The above cells are cultured in a Ham's F-12 medium containing 10% fetal bovine serum and 400 μg/mL geneticin (Invitrogen). After seeding these cells into a 96-well plate (2×10^4 cells/well) and culturing them for about 20 hours, they are allowed to stand in a serum-free Ham's F-12 medium (80 μL) for 15 minutes. The test compound is first dissolved in DMSO, serially diluted with Ham's F-12 comprising 100 mmol/L HEPES and 1 mmol/L isobutylmethylxanthine, and then 20 μL of the solution is added to the cells. After the cells are cultured for 30 minutes, the medium is removed, followed by addition of assay/lysis buffer (0.1 ml) included in cAMP-Screen Kit (manufactured by Applied Biosystems). The cells are incubated for 30 minutes at 37° C. The resulting cell lysate is determined to cAMP quantitation by using cAMP-Screen kit described above.

[3] = molecular target: T3, human β1 adrenergic receptor (Homo sapiens, UniProt P08588); assay: Test example 2-B: human β1 adrenergic receptor agonist activity; type: cell-based; conditions: 0.5 h; read-out: β1 receptor I.A.
T3 construct: expressed in transfected cells; host or cells: CHO (Chinese hamster ovary) cells, pcDNA3

[4] = molecular target: T4, human β2 adrenergic receptor (Homo sapiens, UniProt P07550); assay: Test example 3-B: human β2 adrenergic receptor agonist activity; type: cell-based; conditions: read-out: β2 receptor I.A.
T4 construct: expressed in transfected cells; host or cells: CHO (Chinese hamster ovary) cells, pcDNA3

[5] = system: rat under pentobarbital anesthesia; assay: Test example 9: effect on blood pressure and heart rate of a rat under pentobarbital anesthesia; type: in vivo; conditions: male SD rat, 3 mg/kg intravenous bolus; greatest change of mean blood pressure relative to before administration; mean ± standard deviation
Method: After measuring blood pressure and heart rate of a rat under pentobarbital anesthesia, an effect of intravenous bolus administration of a test compound on blood pressure and heart rate can be determined. To a male SD rat (Japan SLC Inc.), sodium pentobarbital (Tokyo Chemical Industry Co., Ltd.) is intraperitoneally administered for induction of anesthesia (50 mg/kg). As maintenance anesthetics, sodium pentobarbital is subcutaneously administered (25 mg/kg). Left femoral vein is exposed and stripped, and then a polyethylene tube SP10 (connected to a three-way stopcock via ¼ vein needle) which has been filled with physiological saline is inserted and left in the vein.
Left medial femoral region is cut to expose and strip the femoral artery, and then a polyethylene tube (SP31, connected to a three-way stopcock via 22 G injection needle by TERUMO Corporation) which has been filled with heparin physiological saline is inserted and connected to a pressure transducer. Blood pressure is measured from the pressure transducer by using a modified pressure amplifier (AP-641 G, Nihon Kohden Corporation). Heart rate is measured by using the Heart rate Counter (AT-601 g, Nihon Kohden Corporation) while having the pulse wave of the blood pressure as a trigger. The blood pressure, mean blood pressure and heart rate are transmitted to the data recorder for recordation. In addition, the mean blood pressure is recorded using a modified pressure amplifier (AP-641 G) according to the equation of {diastolic blood pressure+(systolic blood pressure−diastolic blood pressure)/3}.
Blood pressure and heart rate measurement is started, and after confirming that each value remains almost constant, the test compound (3 mg/kg) is administered to the left femoral vein for 30 seconds. Specifically, the test compound with 3 mg/mL concentration is bolus administered at the administration dose of 1 mL/kg. Relative value (%) at each time point compared to the mean blood pressure and the heart rate before the administration is obtained for each individual. […]

[6] = molecular target: T2, human β3 adrenergic receptor; assay: Test example 1-A: human β3 adrenergic receptor agonist activity (cAMP EIA, 24-well); type: cell-based; conditions: Table 3, maximum response to isoproterenol taken as 100%
Method: Human β3 adrenergic receptor agonist activity is determined using CHO (Chinese hamster ovary) cells transfected with pcDNA3 (Invitrogen) to which human β3 gene has been inserted. […] This human β3 cDNA fragment is used as a probe to obtain the full length human β3 gene from a human genomic library (Clonetech). The above cells are cultured in a Ham's F-12 medium containing 10% fetal bovine serum and 400 μg/mL geneticin (Invitrogen).

[7] = system: urinary bladder smooth muscle isolated from common marmoset; assay: Test example 7: relaxant activity on urinary bladder smooth muscle isolated from common marmoset; conditions: strips contracted by 40 mmol/L KCl, papaverine 10^−4 mol/L relaxation = 100%
Method: Specifically, a common marmoset (CLEA Japan, Inc.) is bled to exsanguinated death, and then the urinary bladder is taken out of the marmoset via laparotomy. […] A resting tension of 1 g is applied to the strips, which is then equilibrated for more than 30 minutes. […] The final concentration is 10^−9, 10^−8, 10^−7, 10^−8, 10^−5 and 10^−4 mol/L. Upon the completion of the relaxation response to the test compound at the highest concentration, papaverine with final concentration of 10^−4 mol/L is added and the maximum relaxation response is obtained for each strip. This relaxation response is taken as 100%, and the relaxation ratio (%) is obtained for the test compound at the concentrations of 10^−5 and 10^−4 mol/L.

T2 sequence (P13945 whole entry): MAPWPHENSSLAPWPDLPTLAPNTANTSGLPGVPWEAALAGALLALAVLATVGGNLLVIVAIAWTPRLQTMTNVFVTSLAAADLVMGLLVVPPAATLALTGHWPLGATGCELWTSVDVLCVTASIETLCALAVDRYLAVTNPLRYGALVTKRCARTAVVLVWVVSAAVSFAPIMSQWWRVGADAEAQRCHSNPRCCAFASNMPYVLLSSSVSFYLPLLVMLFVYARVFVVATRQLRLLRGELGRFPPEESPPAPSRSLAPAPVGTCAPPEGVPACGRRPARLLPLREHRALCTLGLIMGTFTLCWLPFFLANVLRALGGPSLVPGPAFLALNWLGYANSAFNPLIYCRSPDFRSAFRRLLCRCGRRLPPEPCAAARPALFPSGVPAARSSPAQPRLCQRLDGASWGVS
T3 sequence (P08588 whole entry): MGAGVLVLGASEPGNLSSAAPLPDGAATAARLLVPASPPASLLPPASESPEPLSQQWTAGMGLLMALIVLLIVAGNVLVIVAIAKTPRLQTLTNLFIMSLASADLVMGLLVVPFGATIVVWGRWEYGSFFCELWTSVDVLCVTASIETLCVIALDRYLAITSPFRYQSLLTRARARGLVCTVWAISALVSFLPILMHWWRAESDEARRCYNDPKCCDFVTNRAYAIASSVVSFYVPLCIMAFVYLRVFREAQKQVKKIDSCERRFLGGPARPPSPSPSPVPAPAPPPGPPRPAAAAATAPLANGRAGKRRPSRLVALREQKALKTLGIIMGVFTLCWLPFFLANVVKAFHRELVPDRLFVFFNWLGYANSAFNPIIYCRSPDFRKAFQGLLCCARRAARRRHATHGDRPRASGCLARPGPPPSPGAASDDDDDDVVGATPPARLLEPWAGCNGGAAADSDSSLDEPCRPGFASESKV
T4 sequence (P07550 whole entry): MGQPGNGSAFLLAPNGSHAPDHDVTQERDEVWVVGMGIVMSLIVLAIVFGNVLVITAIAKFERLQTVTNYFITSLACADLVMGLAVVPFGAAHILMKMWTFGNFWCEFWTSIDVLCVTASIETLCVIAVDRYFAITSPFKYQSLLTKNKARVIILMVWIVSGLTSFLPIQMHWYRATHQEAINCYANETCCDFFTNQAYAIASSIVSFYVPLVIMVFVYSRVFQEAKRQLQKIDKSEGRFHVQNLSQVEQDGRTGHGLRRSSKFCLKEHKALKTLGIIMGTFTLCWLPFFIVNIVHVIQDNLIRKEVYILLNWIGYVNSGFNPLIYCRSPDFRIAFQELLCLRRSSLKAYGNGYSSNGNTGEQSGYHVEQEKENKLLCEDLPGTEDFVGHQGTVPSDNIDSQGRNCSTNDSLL

Structure (SMILES)	Emax ([1]; Table 3) [%]	α1A receptor I.A. ([1]; Table 4) [%]	Emax ([1]; Table 4) [%]	Emax [2] [%]	EC50 ([2]; Table 4, Test example 1-B) [nM]	Emax [3] [%]	Emax [4] [%]	increase in MBP (%) [5] [%]	β3 receptor I.A. [6] [%]	β3 receptor I.A. ([2]; Table 4, Test example 1-B, maximum response to isoproterenol taken as 100%) [%]	relaxant activity (%) 10^−4 M ([7]; 10^−4 M) [%]	relaxant activity (%) 10^−5 M ([7]; 10^−5 M) [%]
NC[C@H](O)c1ccc(O)c(O)c1 [Norepinephrine, reference compound]	100	100										
COC(C)c1n[nH]c2cc(OCCNC[C@H](O)c3cccc(NS(C)(=O)=O)c3)ccc12 (stereo partly drawn) [Example 3, N-(3-((R)-1-Hydroxy-2-(2-(3-(1-methoxyethyl)-indazol-6-yloxy)ethylamino)ethyl)phenyl)methanesulfonamide]			15	60	45	4	5	2.3 ± 0.9				
CS(=O)(=O)Nc1cc([C@@H](O)CNCCOc2ccc3c(C4CCC4)n[nH]c3c2)ccc1F [Example 6, (R)—N-(5-(2-(2-(3-Cyclobutylindazol-6-yloxy)ethylamino)-1-hydroxyethyl)-2-fluorophenyl)methanesulfonamide]			0	41	54							
CS(=O)(=O)Nc1cc([C@@H](O)CNCCOc2ccc3c(OC(F)F)n[nH]c3c2)ccc1F [Example 7, (R)—N-(5-(2-(2-(3-(Difluoromethoxy)-indazol-6-yloxy)ethylamino)-1-hydroxyethyl)-2-fluorophenyl)methanesulfonamide]			5	51	584							
CS(=O)(=O)Nc1cc([C@@H](O)CNCCOc2ccc3c(C4CC4)n[nH]c3c2)ccc1Cl [Example 5, (R)—N-(2-Chloro-5-(2-(2-(3-cyclopropylindazol-6-yloxy)ethylamino)-1-hydroxyethyl)phenyl)methanesulfonamide]			0	59	19	23	9					
CC(C)NCC(O)c1ccc(O)c(O)c1 (centres unmarked) [isoproterenol, reference compound]									100	100	66.2	60.9
CS(=O)(=O)Nc1cc([C@@H](O)CNCCOc2ccc3c(OC(F)F)n[nH]c3c2)ccc1Cl [Example 9, (R)—N-(2-Chloro-5-(2-(2-(3-(difluoromethoxy)-indazol-6-yloxy)ethylamino)-1-hydroxyethyl)phenyl)methanesulfonamide]			5	51	56	30	1					
CS(=O)(=O)Nc1cc([C@@H](O)CNCCOc2ccc3c(C4CCC4)n[nH]c3c2)ccc1Cl [Example 8, (R)—N-(2-Chloro-5-(2-(2-(3-cyclobutylindazol-6-yloxy)ethylamino)-1-hydroxyethyl)phenyl)methanesulfonamide]			0	70	29	34	10					
CS(=O)(=O)Nc1cc([C@@H](O)CNCCOc2ccc3c(C4CC4)n[nH]c3c2)ccc1F [Example 4, (R)—N-(5-(2-(2-(3-Cyclopropylindazol-6-yloxy)ethylamino)-1-hydroxyethyl)-2-fluorophenyl)methanesulfonamide]			0	52	24	9	8					
